Experiment: xn = mol fraction of the nth substance listed
Details: 101 kPa

NCCO + CCCC[n+]1ccn(C)c1.F[P-](F)(F)(F)(F)F
x1 = 1
Details | electrical conductivity [S/m] | viscosity [mPa·s]
298.15 K | 0.0023 | 18.6
303.15 K | 0.0027 | 15
308.15 K | 0.0032 | 11.9
313.15 K | 0.0036 | 9.9
323.15 K | 0.0069 | 7

CN(C)CCO + CCCC[n+]1ccn(C)c1.F[P-](F)(F)(F)(F)F
Details | electrical conductivity [S/m] | viscosity [mPa·s]
288.15 K, x1 = 0.1221 | 0.12 | 213
288.15 K, x1 = 0.2143 | 0.14 | 159
288.15 K, x1 = 0.4405 | – | 81
288.15 K, x1 = 0.4637 | 0.179 | –
288.15 K, x1 = 0.605 | 0.206 | 46
288.15 K, x1 = 0.9128 | 0.135 | 9.5
288.15 K, x1 = 1 | 0.082 | 5
293.15 K, x1 = 0.1221 | 0.161 | 157
293.15 K, x1 = 0.3182 | 0.203 | 88
293.15 K, x1 = 0.3764 | 0.226 | –
293.15 K, x1 = 0.605 | 0.264 | 35
293.15 K, x1 = 0.709 | 0.266 | 23
293.15 K, x1 = 0.9128 | 0.16 | 8
293.15 K, x1 = 1 | 0.091 | 4.3
298.15 K, x1 = 0.2143 | 0.242 | 88
298.15 K, x1 = 0.3182 | 0.263 | 66
298.15 K, x1 = 0.3764 | 0.285 | –
298.15 K, x1 = 0.4405 | – | 46
298.15 K, x1 = 0.5166 | 0.322 | 36
298.15 K, x1 = 0.605 | 0.333 | 27
298.15 K, x1 = 0.709 | 0.332 | 18.2
298.15 K, x1 = 0.8063 | 0.297 | 11.8
303.15 K, x1 = 0.1221 | 0.272 | 88
303.15 K, x1 = 0.2143 | 0.311 | 68
303.15 K, x1 = 0.3182 | 0.341 | 51
303.15 K, x1 = 0.4637 | 0.389 | –
303.15 K, x1 = 0.5166 | 0.403 | 28
303.15 K, x1 = 0.605 | 0.414 | 21.4
303.15 K, x1 = 0.709 | 0.404 | 14.7
303.15 K, x1 = 0.9128 | 0.218 | 5.6
303.15 K, x1 = 1 | 0.11 | 3.2
308.15 K, x1 = 0.1221 | 0.348 | 67
308.15 K, x1 = 0.2143 | 0.396 | 52
308.15 K, x1 = 0.3182 | 0.431 | 39
308.15 K, x1 = 0.3764 | 0.461 | –
308.15 K, x1 = 0.5166 | 0.502 | 22.4
308.15 K, x1 = 0.605 | 0.51 | 17
308.15 K, x1 = 0.709 | 0.49 | 11.9
308.15 K, x1 = 0.8063 | 0.423 | 8
308.15 K, x1 = 0.9128 | 0.252 | 4.8
308.15 K, x1 = 1 | 0.12 | 2.9
313.15 K, x1 = 0.1221 | 0.434 | 53
313.15 K, x1 = 0.2143 | 0.491 | 41
313.15 K, x1 = 0.3182 | 0.531 | 31
313.15 K, x1 = 0.3764 | 0.564 | –
313.15 K, x1 = 0.4405 | – | 22.6
313.15 K, x1 = 0.4637 | 0.589 | –
313.15 K, x1 = 0.5166 | 0.606 | 18.1
313.15 K, x1 = 0.709 | 0.583 | 9.8
313.15 K, x1 = 0.8063 | 0.494 | 6.7
313.15 K, x1 = 0.9128 | 0.288 | 4.1
313.15 K, x1 = 1 | 0.131 | 2.5
318.15 K, x1 = 0.1221 | 0.531 | 42
318.15 K, x1 = 0.2143 | 0.599 | 33
318.15 K, x1 = 0.3182 | 0.648 | 25
318.15 K, x1 = 0.4405 | – | 18.6
318.15 K, x1 = 0.4637 | 0.713 | –
318.15 K, x1 = 0.5166 | 0.727 | 14.9
318.15 K, x1 = 0.605 | 0.726 | 11.6
318.15 K, x1 = 0.709 | 0.682 | 8.3
318.15 K, x1 = 0.8063 | 0.571 | 5.7
318.15 K, x1 = 0.9128 | 0.326 | 3.6
318.15 K, x1 = 1 | 0.141 | 2.27
323.15 K, x1 = 0.1221 | 0.63 | 35
323.15 K, x1 = 0.2143 | 0.712 | 28
323.15 K, x1 = 0.3182 | 0.767 | 21.2
323.15 K, x1 = 0.4405 | – | 15.7
323.15 K, x1 = 0.4637 | 0.834 | –
323.15 K, x1 = 0.605 | 0.841 | 9.9
323.15 K, x1 = 0.709 | 0.784 | 7.1
323.15 K, x1 = 0.8063 | 0.648 | 5
323.15 K, x1 = 0.9128 | 0.363 | 3.2

CCCC[n+]1ccn(C)c1.F[P-](F)(F)(F)(F)F + NCCO
Details | electrical conductivity [S/m] | viscosity [mPa·s]
288.15 K, x2 = 0 | 0.105 | 350
288.15 K, x2 = 0.1185 | 0.124 | 220
288.15 K, x2 = 0.2113 | 0.144 | 172
288.15 K, x2 = 0.3052 | 0.165 | 141
288.15 K, x2 = 0.387 | 0.177 | –
288.15 K, x2 = 0.4282 | 0.178 | 107
288.15 K, x2 = 0.4761 | 0.186 | –
288.15 K, x2 = 0.4918 | 0.186 | 93
288.15 K, x2 = 0.5352 | 0.194 | –
288.15 K, x2 = 0.5871 | 0.2 | –
288.15 K, x2 = 0.6161 | 0.197 | 70
288.15 K, x2 = 0.6533 | 0.198 | –
288.15 K, x2 = 0.6984 | 0.194 | 58
288.15 K, x2 = 0.9592 | 0.0794 | –
293.15 K, x2 = 0 | 0.142 | 250
293.15 K, x2 = 0.1185 | 0.167 | 159
293.15 K, x2 = 0.2113 | 0.194 | 125
293.15 K, x2 = 0.4282 | 0.239 | 78
293.15 K, x2 = 0.4761 | 0.251 | –
293.15 K, x2 = 0.4918 | 0.25 | 68
293.15 K, x2 = 0.6161 | 0.262 | 52
293.15 K, x2 = 0.6533 | 0.264 | –
293.15 K, x2 = 0.6984 | 0.259 | 44
293.15 K, x2 = 0.8022 | 0.243 | 34
293.15 K, x2 = 0.9028 | 0.178 | 27
298.15 K, x2 = 0.1185 | 0.221 | 117
298.15 K, x2 = 0.387 | 0.309 | –
298.15 K, x2 = 0.4282 | 0.312 | 59
298.15 K, x2 = 0.4761 | 0.329 | –
298.15 K, x2 = 0.4918 | 0.325 | 52
298.15 K, x2 = 0.5871 | 0.347 | –
298.15 K, x2 = 0.6161 | 0.34 | 39
298.15 K, x2 = 0.6533 | 0.346 | –
298.15 K, x2 = 0.6984 | 0.34 | 33
298.15 K, x2 = 0.9028 | 0.226 | 21.3
298.15 K, x2 = 0.9592 | 0.131 | –
303.15 K, x2 = 0 | 0.24 | 136
303.15 K, x2 = 0.1185 | 0.286 | 87
303.15 K, x2 = 0.2113 | 0.33 | 70
303.15 K, x2 = 0.3052 | 0.378 | 58
303.15 K, x2 = 0.387 | 0.397 | –
303.15 K, x2 = 0.4282 | 0.4 | 45
303.15 K, x2 = 0.4761 | 0.424 | –
303.15 K, x2 = 0.4918 | 0.415 | 39
303.15 K, x2 = 0.5871 | 0.445 | –
303.15 K, x2 = 0.6161 | 0.432 | 30
303.15 K, x2 = 0.6533 | 0.441 | –
303.15 K, x2 = 0.8022 | 0.397 | 20.8
303.15 K, x2 = 0.9028 | 0.283 | 16.9
303.15 K, x2 = 0.9592 | 0.164 | –
308.15 K, x2 = 0 | 0.309 | 102
308.15 K, x2 = 0.1185 | 0.366 | 67
308.15 K, x2 = 0.2113 | 0.422 | 55
308.15 K, x2 = 0.3052 | 0.486 | 44
308.15 K, x2 = 0.4918 | 0.529 | 30
308.15 K, x2 = 0.5352 | 0.551 | –
308.15 K, x2 = 0.5871 | 0.565 | –
308.15 K, x2 = 0.6161 | 0.55 | 23.6
308.15 K, x2 = 0.6533 | 0.561 | –
308.15 K, x2 = 0.6984 | 0.552 | 20.2
308.15 K, x2 = 0.8022 | 0.495 | 16.3
308.15 K, x2 = 0.9028 | 0.351 | 13.5
308.15 K, x2 = 0.9592 | 0.204 | –
313.15 K, x2 = 0 | 0.384 | 79
313.15 K, x2 = 0.1185 | 0.455 | 53
313.15 K, x2 = 0.2113 | 0.524 | 42
313.15 K, x2 = 0.387 | 0.627 | –
313.15 K, x2 = 0.4282 | 0.635 | 27
313.15 K, x2 = 0.4918 | 0.665 | 24.4
313.15 K, x2 = 0.5871 | 0.698 | –
313.15 K, x2 = 0.6161 | 0.676 | 18.8
313.15 K, x2 = 0.6533 | 0.693 | –
313.15 K, x2 = 0.6984 | 0.675 | 16.3
313.15 K, x2 = 0.8022 | 0.607 | 13.1
313.15 K, x2 = 0.9028 | 0.426 | 11
318.15 K, x2 = 0 | 0.421 | 62
318.15 K, x2 = 0.1185 | 0.558 | 42
318.15 K, x2 = 0.2113 | 0.641 | 34
318.15 K, x2 = 0.387 | 0.766 | –
318.15 K, x2 = 0.4761 | 0.813 | –
318.15 K, x2 = 0.5352 | 0.825 | –
318.15 K, x2 = 0.5871 | 0.846 | –
318.15 K, x2 = 0.6161 | 0.82 | 15.3
318.15 K, x2 = 0.6533 | 0.843 | –
318.15 K, x2 = 0.6984 | 0.821 | 12.8
318.15 K, x2 = 0.8022 | 0.731 | 10.8
318.15 K, x2 = 0.9028 | 0.526 | 9.1
318.15 K, x2 = 0.9592 | 0.3 | –
323.15 K, x2 = 0.1185 | 0.665 | 35
323.15 K, x2 = 0.2113 | 0.76 | 28
323.15 K, x2 = 0.387 | 0.915 | –
323.15 K, x2 = 0.4282 | 0.918 | 18.3
323.15 K, x2 = 0.4918 | 0.945 | 16.1
323.15 K, x2 = 0.5871 | 1 | –
323.15 K, x2 = 0.6161 | 0.971 | 12.8
323.15 K, x2 = 0.6533 | 0.999 | –
323.15 K, x2 = 0.6984 | 0.972 | 11.1
323.15 K, x2 = 0.8022 | 0.861 | 9.1
323.15 K, x2 = 0.9028 | 0.619 | 7.7
323.15 K, x2 = 0.9592 | 0.351 | –

CCCC[n+]1ccn(C)c1.F[P-](F)(F)(F)(F)F + CN(C)CCO
x2 = 0
Details | electrical conductivity [S/m] | viscosity [mPa·s]
288.15 K | 0.105 | 350
293.15 K | 0.142 | 250
298.15 K | 0.185 | 182
303.15 K | 0.24 | 136
308.15 K | 0.309 | 102
313.15 K | 0.384 | 79
318.15 K | 0.421 | 62
323.15 K | 0.504 | 48

Reference: a compilation of properties of binary mixtures (doi:10.1016/j.molliq.2008.06.014)
